Measured values from patent US10335409B2 (priority 2012, dated 2019).

Assays:
[1] = target: HCV NS3 protease domain genotype 1b (Hepatitis C virus genotype 1b (isolate Con1), UniProt Q9WMX2, E1202G); test: Ki determination, NS3 protease genotype 1b (fluorogenic depsipeptide substrate); format: biochemical; details: 50 pM enzyme, NS4A peptide
[2] = target: HCV NS3 protease domain genotype 3a (Hepatitis C virus genotype 3a, UniProt Q81258); test: Ki determination, NS3 protease genotype 3a (fluorogenic depsipeptide substrate); format: biochemical; details: 200 pM enzyme, NS4A peptide
Outline: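 The NS3 protease domain (aa 1-181) with 20 μM NS4A peptide was used at 50 pM with 4 μM substrate (1b) or at 200 pM with 2 μM substrate (3a). Inhibitors (100 nM-5 pM) were pre-incubated 1 h at room temperature in HEPES/glycerol/DTT buffer with 10% DMSO. Steady-state rates (90-120 min) gave Ki via the Morrison equation, corrected for active enzyme and [S]/Km.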

[3] = tested on: genotype 1a (H77) stable HCV replicon in Huh-7-derived cells; test: Stable subgenomic HCV replicon EC50, genotype 1a (Renilla luciferase); format: cell-based, hepatitis C virus; details: Hepatitis C virus, stable replicon genotype 1a, 72 h, read-out: EC50 1A RLUC
Outline: (§1)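 Compounds, three-fold diluted, were applied to Huh-7-derived cells harbouring luciferase replicons (genotype 1a H77, 1b Con1, 2a JFH-1, 4a ED43, with strain-specific adaptive mutations). Seventy-two hours later, intracellular replication was gauged by Renilla luciferase activity and EC50 derived by regression.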

[4] = tested on: genotype 1b (Con1) stable HCV replicon in Huh-7-derived cells; test: Stable subgenomic HCV replicon EC50, genotype 1b (Renilla luciferase); format: cell-based, hepatitis C virus; details: Hepatitis C virus, stable replicon genotype 1b, 72 h, read-out: EC50 1B RLUC
Outline: as §1

[5] = tested on: genotype 2a (JFH-1) stable HCV replicon in Huh-7-derived cells; test: Stable subgenomic HCV replicon EC50, genotype 2a (Renilla luciferase); format: cell-based, hepatitis C virus; details: Hepatitis C virus, stable replicon genotype 2a, 72 h, read-out: EC50 2A RLUC
Outline: as §1

[6] = tested on: genotype 3a (S52) stable HCV replicon in Huh-7-derived cells; test: Stable subgenomic HCV replicon EC50, genotype 3a (Renilla luciferase); format: cell-based, hepatitis C virus; details: Hepatitis C virus, 72 h, read-out: EC50 3A RLUC
[7] = tested on: genotype 4a (ED43) stable HCV replicon in Huh-7-derived cells; test: Stable subgenomic HCV replicon EC50, genotype 4a (Renilla luciferase); format: cell-based, hepatitis C virus; details: Hepatitis C virus, 72 h, read-out: EC50 4A RLUC
Outline: as §1

[8] = tested on: genotype 3a (S52) wild type transient HCV replicon in Huh-7-derived cells; test: Transient-transfected HCV replicon EC50, genotype 3a wild type; format: cell-based, hepatitis C virus; details: Hepatitis C virus; transient-transfected replicon genotype 3a wild type, 72 h; read-out: EC50 3A WT
[9] = tested on: genotype 1a (H77) wild type transient HCV replicon in Huh-7-derived cells; test: Transient-transfected HCV replicon EC50, genotype 1a wild type; format: cell-based, hepatitis C virus; details: Hepatitis C virus, 72 h, transient-transfected replicon genotype 1a wild type, read-out: EC50 1A WT
[10] = tested on: genotype 1a NS3/4a protease inhibitor resistant variant R155K transient HCV replicon in Huh-7-derived cells; test: Transient-transfected HCV replicon EC50, genotype 1a R155K; format: cell-based, hepatitis C virus; details: Hepatitis C virus, 72 h, read-out: EC50 1A R155K, transient-transfected replicon genotype 1a R155K resistant variant, 72 h
[11] = tested on: genotype 1b (Con1) wild type transient HCV replicon in Huh-7-derived cells; test: Transient-transfected HCV replicon EC50, genotype 1b wild type; format: cell-based, hepatitis C virus; details: Hepatitis C virus, 72 h, transient-transfected replicon genotype 1b wild type, read-out: EC50 1B WT
[12] = tested on: genotype 1b NS3/4a protease inhibitor resistant variant D168A transient HCV replicon in Huh-7-derived cells; test: Transient-transfected HCV replicon EC50, genotype 1b D168A; format: cell-based, hepatitis C virus; details: Hepatitis C virus, 72 h, read-out: EC50 1B D168A, transient-transfected replicon genotype 1b D168A resistant variant, 72 h

Chain of HCV NS3 protease domain genotype 3a (Q81258 whole entry, looked up, the tested form may be a part): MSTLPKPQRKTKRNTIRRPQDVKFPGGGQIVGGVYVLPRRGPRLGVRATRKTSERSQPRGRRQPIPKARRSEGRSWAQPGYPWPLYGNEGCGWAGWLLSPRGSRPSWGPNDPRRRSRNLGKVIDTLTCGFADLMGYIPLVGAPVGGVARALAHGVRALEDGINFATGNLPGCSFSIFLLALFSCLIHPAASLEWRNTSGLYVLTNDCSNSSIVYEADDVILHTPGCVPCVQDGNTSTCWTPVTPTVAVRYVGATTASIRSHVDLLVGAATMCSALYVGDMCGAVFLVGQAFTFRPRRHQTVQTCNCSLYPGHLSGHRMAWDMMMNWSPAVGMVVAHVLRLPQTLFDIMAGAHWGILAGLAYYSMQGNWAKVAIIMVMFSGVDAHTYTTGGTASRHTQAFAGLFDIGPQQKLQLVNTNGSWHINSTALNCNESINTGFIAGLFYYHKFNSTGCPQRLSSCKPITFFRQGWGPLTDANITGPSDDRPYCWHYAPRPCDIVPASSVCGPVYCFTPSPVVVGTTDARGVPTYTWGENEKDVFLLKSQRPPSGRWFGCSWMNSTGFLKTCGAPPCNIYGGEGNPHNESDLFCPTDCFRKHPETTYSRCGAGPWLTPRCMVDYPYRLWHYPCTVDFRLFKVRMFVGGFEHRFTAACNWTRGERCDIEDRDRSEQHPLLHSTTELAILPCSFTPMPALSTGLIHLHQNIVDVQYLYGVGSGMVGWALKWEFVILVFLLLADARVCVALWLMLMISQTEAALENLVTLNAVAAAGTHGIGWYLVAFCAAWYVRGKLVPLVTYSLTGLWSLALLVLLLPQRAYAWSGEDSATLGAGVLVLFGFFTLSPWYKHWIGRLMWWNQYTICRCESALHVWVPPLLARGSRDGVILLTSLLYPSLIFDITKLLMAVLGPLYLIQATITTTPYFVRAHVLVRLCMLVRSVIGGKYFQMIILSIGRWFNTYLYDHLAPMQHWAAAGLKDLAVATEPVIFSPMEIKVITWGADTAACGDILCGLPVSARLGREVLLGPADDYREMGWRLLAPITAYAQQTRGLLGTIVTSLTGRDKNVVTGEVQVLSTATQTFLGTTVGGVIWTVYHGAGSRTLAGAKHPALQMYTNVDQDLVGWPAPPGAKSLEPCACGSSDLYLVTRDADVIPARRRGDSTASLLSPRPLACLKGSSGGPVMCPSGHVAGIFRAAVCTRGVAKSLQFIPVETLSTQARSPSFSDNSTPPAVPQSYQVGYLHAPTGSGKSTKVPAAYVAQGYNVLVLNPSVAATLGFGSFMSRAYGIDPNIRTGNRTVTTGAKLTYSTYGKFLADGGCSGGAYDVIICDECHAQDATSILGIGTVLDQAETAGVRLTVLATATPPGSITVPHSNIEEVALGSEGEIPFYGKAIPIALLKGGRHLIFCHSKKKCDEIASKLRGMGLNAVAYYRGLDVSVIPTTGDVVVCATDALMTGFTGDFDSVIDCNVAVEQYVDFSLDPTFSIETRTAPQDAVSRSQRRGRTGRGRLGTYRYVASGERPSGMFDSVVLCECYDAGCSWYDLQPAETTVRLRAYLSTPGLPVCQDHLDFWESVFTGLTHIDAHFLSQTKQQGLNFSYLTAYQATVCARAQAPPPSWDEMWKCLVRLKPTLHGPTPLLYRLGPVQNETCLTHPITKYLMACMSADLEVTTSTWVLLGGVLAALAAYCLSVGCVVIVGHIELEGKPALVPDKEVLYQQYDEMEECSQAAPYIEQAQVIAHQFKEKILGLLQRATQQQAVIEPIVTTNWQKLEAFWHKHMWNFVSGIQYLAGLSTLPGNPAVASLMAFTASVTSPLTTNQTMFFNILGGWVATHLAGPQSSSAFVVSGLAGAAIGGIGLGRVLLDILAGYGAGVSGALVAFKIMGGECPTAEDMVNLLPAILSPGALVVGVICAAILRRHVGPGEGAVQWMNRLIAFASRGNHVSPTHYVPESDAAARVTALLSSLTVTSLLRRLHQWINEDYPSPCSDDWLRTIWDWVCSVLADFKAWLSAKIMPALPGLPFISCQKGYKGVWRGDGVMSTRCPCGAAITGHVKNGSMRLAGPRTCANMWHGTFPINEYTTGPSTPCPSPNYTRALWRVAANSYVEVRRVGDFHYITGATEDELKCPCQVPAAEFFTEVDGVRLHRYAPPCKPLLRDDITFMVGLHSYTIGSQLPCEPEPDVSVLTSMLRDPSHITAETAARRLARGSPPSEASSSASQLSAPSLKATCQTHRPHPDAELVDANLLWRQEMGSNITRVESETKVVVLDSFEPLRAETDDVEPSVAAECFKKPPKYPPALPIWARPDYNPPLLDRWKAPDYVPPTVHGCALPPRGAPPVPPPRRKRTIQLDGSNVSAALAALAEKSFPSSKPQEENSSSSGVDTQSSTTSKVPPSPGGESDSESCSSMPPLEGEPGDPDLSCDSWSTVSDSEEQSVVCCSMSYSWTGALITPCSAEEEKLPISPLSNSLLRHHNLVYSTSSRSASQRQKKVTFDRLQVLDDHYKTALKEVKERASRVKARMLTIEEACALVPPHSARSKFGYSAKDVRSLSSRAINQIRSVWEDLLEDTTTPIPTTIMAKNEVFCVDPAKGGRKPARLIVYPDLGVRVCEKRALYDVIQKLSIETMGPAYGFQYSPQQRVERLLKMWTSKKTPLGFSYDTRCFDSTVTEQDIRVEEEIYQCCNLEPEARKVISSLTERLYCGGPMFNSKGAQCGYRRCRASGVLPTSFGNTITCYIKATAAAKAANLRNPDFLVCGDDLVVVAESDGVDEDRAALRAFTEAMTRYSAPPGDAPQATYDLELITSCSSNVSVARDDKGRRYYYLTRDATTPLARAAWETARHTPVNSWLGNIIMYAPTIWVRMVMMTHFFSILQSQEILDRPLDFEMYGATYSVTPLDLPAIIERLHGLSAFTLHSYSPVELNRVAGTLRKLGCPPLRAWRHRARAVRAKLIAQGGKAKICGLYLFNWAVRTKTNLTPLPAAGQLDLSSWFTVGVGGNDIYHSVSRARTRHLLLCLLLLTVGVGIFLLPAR
Chain of HCV NS3 protease domain genotype 1b (Q9WMX2 1027-1208 E1202G): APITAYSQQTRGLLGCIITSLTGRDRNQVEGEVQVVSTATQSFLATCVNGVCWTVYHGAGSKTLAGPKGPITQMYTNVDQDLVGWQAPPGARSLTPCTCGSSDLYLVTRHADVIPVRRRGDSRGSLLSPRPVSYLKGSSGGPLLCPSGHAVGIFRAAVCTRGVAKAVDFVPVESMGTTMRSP

Compound: CC[C@@H]1[C@@H]2CN(C(=O)[C@H](C(C)(C)C)NC(=O)O[C@@H]3C[C@H]3CCCCCc3nc4ccc(OCC(F)(F)F)cc4nc3O2)[C@@H]1C(=O)N[C@]1(C(=O)NS(=O)(=O)C2(C)CC2)C[C@H]1C(F)F [Example 55, (1aR,5S,8S,9S,10R,22aR)-5-tert-butyl-N-[(1R,2R)-2-(difluoromethyl)-1-{[(1-methylcyclopropyl)sulfonyl]carbamoyl}cyclopropyl]-9-ethyl-3,6-dioxo-14-(2,2,2-trifluoroethoxy)-1,1a,3,4,5,6,9,10,18,19,20,21,22,22a-tetradecahydro-8H-7,10-methanocyclopropa[18,19][1,10,3,6]dioxadiazacyclononadecino[11,12-b]quinoxaline-8-carboxamide]
- Ki [1]: 0.09 nM
- Ki [2]: 0.2 nM
- EC50 [3]: 13 nM
- EC50 [4]: 3.8 nM
- EC50 [5]: 12 nM
- EC50 [6]: 140 nM
- EC50 [7]: 3.5 nM
- EC50 [8]: 71 nM
- EC50 [9]: 8 nM
- EC50 [10]: 32 nM
- EC50 [11]: 2.3 nM
- EC50 [12]: 53 nM
